ChEMBL document CHEMBL1156532, “Model structure of the Na+/H+ exchanger 1 (NHE1): functional and clinical implications” (J Biol Chem, 2007)

What was measured:
[1] = molecular target: T1, Na(+)/H(+) antiporter NhaA (Escherichia coli K-12, UniProt P13738); assay: Antiporter activity in Escherichia coli K12 wild type EcNhaA assessed as effect on sodium chloride-induced pH changes by acridine orange fluorescence assay
T1 sequence (P13738 whole entry): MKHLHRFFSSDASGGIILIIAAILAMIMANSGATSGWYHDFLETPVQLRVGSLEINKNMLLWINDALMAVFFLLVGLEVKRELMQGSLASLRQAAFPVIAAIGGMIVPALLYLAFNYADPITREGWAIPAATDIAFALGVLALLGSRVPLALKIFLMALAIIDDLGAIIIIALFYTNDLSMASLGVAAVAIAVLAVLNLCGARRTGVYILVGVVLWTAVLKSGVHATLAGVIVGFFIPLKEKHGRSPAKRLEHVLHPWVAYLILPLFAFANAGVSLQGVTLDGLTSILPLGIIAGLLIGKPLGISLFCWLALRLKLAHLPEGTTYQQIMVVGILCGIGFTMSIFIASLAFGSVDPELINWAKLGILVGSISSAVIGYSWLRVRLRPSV

[2] = molecular target: Na(+)/H(+) antiporter NhaA (Escherichia coli K-12, UniProt P13738, W62C); assay: Antiporter activity in Escherichia coli K12 wild type EcNhaA W62C mutant assessed as effect on sodium chloride-induced pH changes by acridine orange fluorescence assay
[3] = molecular target: T2, Na(+)/H(+) antiporter NhaA (Escherichia coli K-12, UniProt P13738, H225R); assay: Antiporter activity in Escherichia coli K12 wild type EcNhaA H225R mutant assessed as effect on sodium chloride-induced pH changes by acridine orange fluorescence assay
[4] = molecular target: T2, Na(+)/H(+) antiporter NhaA; assay: Antiporter activity in Escherichia coli K12 wild type EcNhaA H225R mutant assessed as effect on lithium chloride-induced pH changes by acridine orange fluorescence assay
[5] = Antiporter activity in Escherichia coli K12 wild type EcNhaA N64C mutant assessed as effect on lithium chloride-induced pH changes by acridine orange fluorescence assay
[6] = Antiporter activity in Escherichia coli K12 wild type EcNhaA F71C mutant assessed as effect on sodium chloride-induced pH changes by acridine orange fluorescence assay
[7] = Antiporter activity in Escherichia coli K12 wild type EcNhaA F72C mutant assessed as effect on sodium chloride-induced pH changes by acridine orange fluorescence assay
[8] = Antiporter activity in Escherichia coli K12 wild type EcNhaA H225Q mutant assessed as effect on lithium chloride-induced pH changes by acridine orange fluorescence assay
[9] = molecular target: Na(+)/H(+) antiporter NhaA (Escherichia coli K-12, UniProt P13738, H225Q); assay: Antiporter activity in Escherichia coli K12 wild type EcNhaA H225Q mutant assessed as effect on sodium chloride-induced pH changes by acridine orange fluorescence assay
[10] = Antiporter activity in Escherichia coli K12 wild type EcNhaA G76C mutant assessed as effect on lithium chloride-induced pH changes by acridine orange fluorescence assay
[11] = molecular target: Na(+)/H(+) antiporter NhaA (Escherichia coli K-12, UniProt P13738, F71C); assay: Antiporter activity in Escherichia coli K12 wild type EcNhaA F71C mutant assessed as effect on lithium chloride-induced pH changes by acridine orange fluorescence assay
[12] = Antiporter activity in Escherichia coli K12 wild type EcNhaA G76C mutant assessed as effect on sodium chloride-induced pH changes by acridine orange fluorescence assay
[13] = molecular target: T1, Na(+)/H(+) antiporter NhaA; assay: Antiporter activity in Escherichia coli K12 wild type EcNhaA assessed as effect on lithium chloride-induced pH changes by acridine orange fluorescence assay
[14] = Antiporter activity in Escherichia coli K12 wild type EcNhaA N64C mutant assessed as effect on sodium chloride-induced pH changes by acridine orange fluorescence assay
[15] = Antiporter activity in Escherichia coli K12 wild type EcNhaA W62C mutant assessed as effect on lithium chloride-induced pH changes by acridine orange fluorescence assay
[16] = Antiporter activity in Escherichia coli K12 wild type EcNhaA F72C mutant assessed as effect on lithium chloride-induced pH changes by acridine orange fluorescence assay

T2 sequence (P13738 whole entry H225R): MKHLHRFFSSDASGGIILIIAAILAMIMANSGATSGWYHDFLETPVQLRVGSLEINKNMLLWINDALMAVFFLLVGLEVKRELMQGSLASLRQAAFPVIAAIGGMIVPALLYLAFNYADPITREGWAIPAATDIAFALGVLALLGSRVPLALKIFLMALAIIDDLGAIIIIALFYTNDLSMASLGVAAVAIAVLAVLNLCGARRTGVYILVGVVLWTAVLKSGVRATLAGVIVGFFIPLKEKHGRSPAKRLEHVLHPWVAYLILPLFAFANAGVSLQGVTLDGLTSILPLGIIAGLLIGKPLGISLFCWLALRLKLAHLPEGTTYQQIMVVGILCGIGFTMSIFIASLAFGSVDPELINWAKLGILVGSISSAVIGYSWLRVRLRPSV
Chain of Na(+)/H(+) antiporter NhaA (Escherichia coli K-12, UniProt P13738, H225Q) (P13738 whole entry H225Q): as the sequence (P13738 whole entry H225R) above, with R225Q counted along it
Chain of Na(+)/H(+) antiporter NhaA (Escherichia coli K-12, UniProt P13738, W62C) (P13738 whole entry W62C): as the sequence (P13738 whole entry H225R) above, with W62C, R225H counted along it
Chain of Na(+)/H(+) antiporter NhaA (Escherichia coli K-12, UniProt P13738, F71C) (P13738 whole entry F71C): as the sequence (P13738 whole entry H225R) above, with F71C, R225H counted along it

Structure (SMILES): NC1=Nc2cccc3cccc(c23)N1
- IC50 [1]: 1700 nM
- IC50 [2]: 1200 nM
- IC50 [3]: 1000 nM
- IC50 [4]: 2300 nM
- IC50 [5]: 17000 nM
- IC50 [6]: 300 nM
- IC50 [7]: 1800 nM
- IC50 [8]: 7800 nM
- IC50 [9]: 800 nM
- IC50 [10]: 1200 nM
- IC50 [11]: 800 nM
- IC50 [12]: 1600 nM
- IC50 [13]: 2200 nM
- IC50 [14]: 500 nM
- IC50 [15]: 1500 nM
- IC50 [16]: 2600 nM
